Paper PMC12452633 (RSC Medicinal Chemistry, 2025)

Assays:
Ku70–Ku80 = Ku70–Ku80 (Homo sapiens, UniProt P12956+P13010); experiment: nano Differential Scanning Fluorometry; format: binding; details: 0 to 25 μM ligand
DNA-PK = DNA-PK (Homo sapiens, UniProt P12956+P13010); experiment: DNA-PK phosphoryl-transferase catalytic; format: biochemical
Ku70/80 = Ku70/80 (Homo sapiens, UniProt P12956+P13010); experiment: Ku–DNA binding EMSA; details: for IC50: Ku70/80 (IC50), purified Ku70/80, direct DNA binding activity by EMSA
Sequence of Ku70/80 (P12956 whole entry): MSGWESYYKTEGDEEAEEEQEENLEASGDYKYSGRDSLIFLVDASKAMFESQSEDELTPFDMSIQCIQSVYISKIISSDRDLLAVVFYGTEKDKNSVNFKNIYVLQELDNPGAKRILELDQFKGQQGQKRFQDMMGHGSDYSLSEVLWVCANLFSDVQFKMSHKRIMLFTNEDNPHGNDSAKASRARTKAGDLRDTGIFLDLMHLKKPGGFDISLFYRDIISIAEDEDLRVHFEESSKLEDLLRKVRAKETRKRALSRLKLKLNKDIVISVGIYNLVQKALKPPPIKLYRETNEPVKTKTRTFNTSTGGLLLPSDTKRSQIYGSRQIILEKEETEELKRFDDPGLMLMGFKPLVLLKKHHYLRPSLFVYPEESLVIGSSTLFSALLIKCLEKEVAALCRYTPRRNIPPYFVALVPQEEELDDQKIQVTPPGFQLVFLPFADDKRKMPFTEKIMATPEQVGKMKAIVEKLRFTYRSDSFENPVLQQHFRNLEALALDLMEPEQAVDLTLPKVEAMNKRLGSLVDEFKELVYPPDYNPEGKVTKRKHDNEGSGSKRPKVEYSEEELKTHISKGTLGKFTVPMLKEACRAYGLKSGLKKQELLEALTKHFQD
Sequence of Ku70/80 (P13010 whole entry): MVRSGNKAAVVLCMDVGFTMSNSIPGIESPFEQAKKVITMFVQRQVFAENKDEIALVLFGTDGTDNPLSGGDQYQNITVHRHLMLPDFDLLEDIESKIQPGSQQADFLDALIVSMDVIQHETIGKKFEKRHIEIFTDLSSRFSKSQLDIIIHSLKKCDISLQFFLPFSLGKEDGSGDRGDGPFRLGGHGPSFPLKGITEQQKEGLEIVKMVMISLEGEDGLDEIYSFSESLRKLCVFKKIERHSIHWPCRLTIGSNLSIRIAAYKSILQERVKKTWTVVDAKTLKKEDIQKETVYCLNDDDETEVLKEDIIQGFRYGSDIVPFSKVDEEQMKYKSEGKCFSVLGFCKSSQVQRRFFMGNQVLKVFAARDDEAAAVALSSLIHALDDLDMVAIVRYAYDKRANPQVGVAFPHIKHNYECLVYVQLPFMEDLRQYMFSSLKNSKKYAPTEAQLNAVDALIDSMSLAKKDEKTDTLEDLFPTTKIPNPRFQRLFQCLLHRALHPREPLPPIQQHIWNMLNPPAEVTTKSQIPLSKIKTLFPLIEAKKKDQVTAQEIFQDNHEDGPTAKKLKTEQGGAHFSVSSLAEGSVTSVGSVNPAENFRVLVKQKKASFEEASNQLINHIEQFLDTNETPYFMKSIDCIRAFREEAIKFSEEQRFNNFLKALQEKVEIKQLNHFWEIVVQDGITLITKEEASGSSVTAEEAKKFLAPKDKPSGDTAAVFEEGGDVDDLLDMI

NHEJ = details: earlier report; cited from earlier work
p53 phosphorylation = details: through p53 phosphorylation, ATM pathway activation; cited from earlier work
Ku70/80 protein = details: gel-based TSA; cited from earlier work

Sequence of DNA-PK (P12956 whole entry): as the sequence (P12956 whole entry) above
Sequence of DNA-PK (P13010 whole entry): as the sequence (P13010 whole entry) above
Sequence of Ku70–Ku80 (P12956 whole entry): as the sequence (P12956 whole entry) above
Sequence of Ku70–Ku80 (P13010 whole entry): as the sequence (P13010 whole entry) above

Question: For COc1cccc(NC(=O)c2cc(-c3ccc(CC4C(=O)N(c5cccc(C(=O)O)c5)N=C4C)o3)ccc2Cl)c1 (stereo not drawn) [53 (149), 3-(4-((5-(4-chloro-3-((3-methoxyphenyl)carbamoyl)phenyl)furan-2-yl)methyl)-3-methyl-5-oxo-4,5-dihydro-1H-pyrazol-1-yl)benzoic acid], which “shift in thermal stability (qualitative)” value (Ku70–Ku80) is on record?
Answer: concentration-dependent induction of a shift in thermal stability

Question: With CC1=NN(c2ccc(S(N)(=O)=O)cc2)C(=O)/C1=C\c1ccc(-c2ccc(Cl)c(C(=O)NCc3ccc(F)cc3)c2)o1 [Compound 69, (Z)-2-Chloro-N-(4-fluorobenzyl)-5-(5-((3-methyl-5-oxo-1-(4-sulfamoylphenyl)-1,5-dihydro-4H-pyrazol-4-ylidene)methyl)furan-2-yl)benzamide] as the compound, how does the IC50 (DNA-PK) read?
Answer: 1.53 ± 0.22 µM

Question: What about the IC50 (Ku70/80) of the same compound?
Answer: 20.7 ± 1.84 µM

Question: Which IC50 (DNA-PK) does the source give for COc1cccc(NC(=O)c2cc(-c3ccc(CC4C(=O)N(c5ccc(S(N)(=O)=O)cc5)N=C4C)o3)ccc2Cl)c1 (stereo not drawn) [Compound 70, 2-chloro-N-(3-methoxyphenyl)-5-(5-((3-methyl-5-oxo-1-(4-sulfamoylphenyl)-4,5-dihydro-1H-pyrazol-4-yl)methyl)furan-2-yl)benzamide] here?
Answer: 0.57 ± 0.12 µM

Question: And the “increase in DNA-PK activity” value (DNA-PK; compared with compound 67)?
Answer: 1–2.5 fold

Question: What about the IC50 (Ku70/80) of the same compound?
Answer: 7.86 ± 4.4 µM

Question: And the “increase in Ku inhibitory activity” value (Ku70/80; compared with compound 67)?
Answer: 1–2.5 fold

Question: What does the source list for COc1cccc(NC(=O)c2cc(-c3ccc(/C=C4\C(=O)N(c5cccc(-c6nnn[nH]6)c5)N=C4C)o3)ccc2Cl)c1 [Compound 75, (Z)-5-(5-((1-(3-(1H-tetrazol-5-yl)phenyl)-3-methyl-5-oxo-1,5-dihydro-4H-pyrazol-4-ylidene)methyl)furan-2-yl)-2-chloro-N-(3-methoxyphenyl)benzamide]?
Answer: IC50 (DNA-PK): 0.98 ± 0.52 µM; IC50 (Ku70/80): 3.51 ± 1.81 µM

Question: Which results are given for COc1cccc(NC(=O)c2cc(-c3ccc(CC4C(=O)N(c5cccc(-c6nnn[nH]6)c5)N=C4C)o3)ccc2Cl)c1 (stereo not drawn) [Compound 76 (245), 5-(5-((1-(3-(1H-tetrazol-5-yl)phenyl)-3-methyl-5-oxo-4,5-dihydro-1H-pyrazol-4-yl)methyl)furan-2-yl)-2-chloro-N-(3-methoxyphenyl)benzamide]?
Answer: effect in CRISPR gene-editing model (NHEJ): inhibiting NHEJ and activating homologous recombination to increase the efficiency of gene insertion; potentiation of cellular effects of bleomycin and IR (p53 phosphorylation): potentiates the cellular effects of bleomycin and IR; direct interaction with Ku70/80 protein (Ku70/80 protein): directly interacts with the Ku70/80 protein
